Data reported in ChEMBL document CHEMBL3046725, “Synthesis and preliminary antibacterial evaluation of hydroxamic acid and N-formyl hydroxylamine derivatives bearing oxazole ring” (2013).
In brackets after ≈: the same amount, converted by molar mass.

How the values were obtained:
Assay type in all cases: functional
Streptococcus pneumoniae = assay: Antibacterial activity against Streptococcus pneumoniae NCTC 7466 after 24 hr by broth microdilution method; settings: NCTC 7466, 24 h
Staphylococcus aureus = assay: Antibacterial activity against Staphylococcus aureus ATCC 25923 after 24 hr by broth microdilution method; settings: ATCC 25923, 24 h
Pseudomonas aeruginosa = assay: Antibacterial activity against Pseudomonas aeruginosa ATCC 27853 after 24 hr by broth microdilution method; settings: ATCC 27853, 24 h
Escherichia coli = assay: Antibacterial activity against Escherichia coli ATCC 25922 after 24 hr by broth microdilution method; settings: ATCC 25922, 24 h

MIC (Streptococcus pneumoniae) [µg/mL]	MIC (Staphylococcus aureus) [µg/mL]	MIC (Pseudomonas aeruginosa) [µg/mL]	MIC (Escherichia coli) [µg/mL]	Compound
200 (≈ 450 µM)	50 (≈ 112 µM)	100 (≈ 225 µM)	25 (≈ 56.2 µM)	CCCC[C@H](CC(=O)NO)C(=O)N[C@H](c1nc(C(=O)Nc2ccc(C)cc2)co1)C(C)C
> 200	100 (≈ 223 µM)	100 (≈ 223 µM)	100 (≈ 223 µM)	CCCC[C@H](CC(=O)NO)C(=O)N[C@H](c1nc(C(=O)Nc2ccc(F)cc2)co1)C(C)C
> 200	100 (≈ 222 µM)	100 (≈ 222 µM)	50 (≈ 111 µM)	CCCC[C@H](CC(=O)NO)C(=O)N[C@H](c1nc(C(=O)Nc2ccc(F)cn2)co1)C(C)C
50 (≈ 122 µM)	25 (≈ 60.9 µM)	100 (≈ 244 µM)	12.5 (≈ 30.4 µM)	CCCC[C@H](CN(O)C=O)C(=O)N[C@H](c1nc(C(=O)N(CC)CC)co1)C(C)C
> 200	50 (≈ 118 µM)	100 (≈ 237 µM)	25 (≈ 59.2 µM)	CCCC[C@H](CN(O)C=O)C(=O)N[C@H](c1nc(C(=O)N2CCCCC2)co1)C(C)C
> 200	> 200	> 200	> 200	CCCC[C@H](CN(O)C=O)C(=O)N[C@H](c1nc(C(=O)Nc2ccc(C)cc2)co1)C(C)C
> 200	> 200	> 200	> 200	CCCC[C@H](CN(O)C=O)C(=O)N[C@H](c1nc(C(=O)Nc2ccc(F)cc2)co1)C(C)C
> 200	> 200	> 200	> 200	CCCC[C@H](CN(O)C=O)C(=O)N[C@H](c1nc(C(=O)Nc2ccc(F)cn2)co1)C(C)C
> 200	> 200	> 200	> 200	CCCC[C@H](CN(O)C=O)C(=O)N[C@H](c1nc(C(=O)Nc2ccc(F)c(F)c2)co1)C(C)C
> 200	> 200	> 200	> 200	CCCC[C@H](CN(O)C=O)C(=O)N[C@H](c1nc(C(=O)Nc2ccc3c(c2)OCO3)co1)C(C)C

Compound	MIC (Streptococcus pneumoniae) [µg/mL]	MIC (Staphylococcus aureus) [µg/mL]	MIC (Pseudomonas aeruginosa) [µg/mL]	MIC (Escherichia coli) [µg/mL]
Cl.O=C(O)c1cn(C2CC2)c2cc(N3CCNCC3)c(F)cc2c1=O [CIPROFLOXACIN HYDROCHLORIDE]	6.25	–	–	–
